Reference: patent US20070078143A1, “Method for preparing Ziprasidone monohydrochloride-hydrate” (Wockhardt Limited, priority 2003, published 2007)
Structures can show the parent of a compound that is named as a salt.

Tests used:
[1] = Moisture re-absorption of the dried (anhydrous) salt on exposure to humidity; format: physicochemical; conditions: after prolonged drying to anhydrous (moisture content up to 0.7% by weight); exposed at 60% relative humidity
Text: Anhydrous Ziprasidone monohydrochloride is disclosed in U.S. Pat. No. 5,312,925. The Ziprasidone monohydrochloride-hydrate of the present invention can be made anhydrous having moisture content up to 0.7% by weight, after prolonged drying. It has been observed that the compound re-absorbs moisture up to 6% when it is exposed at 60% relative humidity.

[2] = Solubility in common organic solvents; format: physicochemical
Experimental: Therefore, another objective of the present invention is to find a suitable solvent or solvent mixture to purify crude Ziprasidone base to obtain the required purity with minimal loss of material. The crude Ziprasidone obtained from step (a) is dissolved in a mixture of tetrahydrofuran and N,N-dimethylformamide (7:3, v/v) with activated charcoal and heated to clarify the solution. The solution obtained is filtered, washed with a cold solvent mixture of THF and DMF and dried. The dried Ziprasidone is obtained in 99% HPLC purity.

Row | moisture re-absorbed [1] | solubility in most of the common organic solvents [2] | SMILES
1 | up to 6% | – | O=C1Cc2cc(CCN3CCN(c4nsc5ccccc45)CC3)c(Cl)cc2N1 [Ziprasidone monohydrochloride-hydrate, 5-(2-(4-1,2-benzisothiazol-3-yl)piperazinyl)ethyl)-6-chloro-1,3-dihydro-2H-indol-2-one Monohydrochloride-hydrate]
2 | – | poor solubility | O=C1Cc2cc(CCN3CCN(c4nsc5ccccc45)CC3)c(Cl)cc2N1 [Ziprasidone, 5-(2-(4-(1,2-benzisothiazol-3-yl)-1-piperazinyl)ethyl)-6-chloro-1,3-dihydro-2H-indole-2-one]
